# In paper PMC6985109, “Cellular apoptosis and necrosis as therapeutic targets for novel Eugenol Tosylate Congeners against Candida albicans” (Scientific Reports, 2020):
# What was measured:
# Assay type in all cases: cell-based, Candida albicans
# [1] = test system: cytochrome c oxidase activity in C. albicans SC5314, C. albicans 4175 and C. albicans 5112; assay: Cytochrome c oxidase activity in mitochondria of treated cells; details: 3 h, range over three strains
# Procedure: (§1) To study the effect of test compounds on apoptotic markers protoplasts were prepared as described previously, with modifications. Briefly, mid-exponential phase cells were harvested and exposed to various concentrations of test compounds (0.5 × MIC, 1 × MIC and 2×MIC) for 3 h. The cells were then washed twice with protoplast buffer- I (1 M sorbitol, 50 mM tris base, 10 mM MgCl2 and 30 mM DTT) and incubated in the same buffer for 15 minutes at 25 °C, followed by centrifugation at 1500 rpm for 5 minutes. Supernatant was removed and cells were incubated with buffer- II (1 M sorbitol, 50 mM tris base, 10 mM MgCl2 and 1 mM DTT) supplemented with lyticase enzyme (≥1 µg/mL) used to digest the cell wall for 1 h at 25 °C. Buffer- II were removed by centrifugation and then cells were incubated with buffer- III (1 M sorbitol, 50 mM tris base and 10 mM MgCl2) for 20 minutes at room temperature. After the incubation cells were again centrifuged at 1500 rpm for 5 minutes and supernatant was discarded. Protoplasts then finally washed once with PBS and re-suspended in the same for further use. In each washing steps the volume of these protoplast buffers were 5 times to cell volume with pH 7.4.
# After the cells were exposed to different concentrations of test compounds as mentioned above, mitochondria of the cells were isolated using Yeast Mitochondria Isolation Kit- MITOISO3 (Sigma – Aldrich St. Louis, MO, U.S.A.). Cytochrome c oxidase assay kit (ScienCell, Cat. No. 8278, CA, USA) was used to detect the cytochrome c oxidase activity. In all procedures, kits were used according to the manufacturer’s instructions. Briefly, prepared spheroplasts were followed by homogenization to release the mitochondria. Homogenate was centrifuged in 1X storage buffer (1 ml) at 6,500 × g for 10 minutes at 2–8 °C. […] Protein concentration was determined by using TCA Lowry method. […] Immediately change in absorbance of cytochrome c was measured at 550 nm on a kinetic program (duration 30 seconds, interval 5 seconds) by using UV-1800 SHIMADZU spectrophotometer (Shimadzu Corporation, Japan).
# [2] = test system: C. albicans 4175, C. albicans 5112 and C. albicans SC5314; assay: TUNEL assay for DNA damage; details: 0.5 × MIC, 1 × MIC and 2 × MIC, compared to the negative control; dose dependent
# Procedure: as §1, with “Protoplasts then finally washed once with PBS and re-suspended in the same for further use. In each washing steps the volume of these protoplast buffers were 5 times to cell volume with pH 7.4.” left out
# TUNEL assay was used to detect the DNA damage, a hallmark for late stages of apoptosis. […] Slides were examined by fluorescence microscopy using Zeiss Laser Scanning Confocal Microscope (LSM) 780 (Carl Zeiss Microscopy, Jena, Germany) with an excitation wavelength of 495 nm and emission wavelength of 519 nm. […] Images were further analyzed by using software ImageJ.
# [3] = test system: C. albicans SC5314, C. albicans 4175 and C. albicans 5112; assay: JC-10 mitochondrial membrane potential assay; details: 3 h, range over three strains, vs untreated control
# Procedure: as §1
# For the detection of mitochondrial membrane potential changes in cells exposed with different concentrations of active tosylate congeners, the JC-10 mitochondrial membrane potential assay kit–microplate (abcam, Cambridge, UK) was used according to the manufacturer’s instructions. Protoplasts were prepared as described above at a concentration of 1 × 10^6 cells/ml. 90 µl of this suspension was added to each well in 96-well microplate (with black wall and clear bottom) followed by addition of 50 µl/well JC-10 dye-loading solution. […] Fluorescence intensity were monitored at Ex/Em = 490/525 nm and 540/590 nm with a BioTek Synergy HT microplate reader (BioTek Instruments, WA, USA) for ratio analysis. The ratio between aggregate (Em = 525 nm) and monomeric forms (Em = 590 nm) of JC-10, were measured to find the change in mitochondrial membrane potential. […]
smiles,measurement,setting,value
"C=CCc1ccc(OS(=O)(=O)c2ccc(C(=O)O)cc2)c(OC)c1 [ETC-7, 4-{[2-methoxy-4-(prop-2-en-1-yl)phenoxy]sulfonyl}benzoic acid]",cytochrome c oxidase enzyme activity decreased up to,[1]; 0.5 × MIC,11.33–18.07%
same,cytochrome c oxidase enzyme activity decreased up to,[1]; 1 × MIC,9.20–13.92%
same,cytochrome c oxidase enzyme activity decreased up to,[1]; 2 × MIC,5.21–9.88%
same,TUNEL positive nuclei (DNA fragmentation),[2],significant increase in proportion of TUNEL positive nuclei
same,decrease in mitochondrial membrane potential,[3]; 0.5 × MIC,1.04–1.58 folds
same,decrease in mitochondrial membrane potential,[3]; 1 × MIC,1.56–2.62 folds
same,decrease in mitochondrial membrane potential,[3]; 2 × MIC,3.55–4.46 folds
